The term IC50 denotes the concentration at which inhibition is half-maximal.

The text below walks through data of publication PMC12692795, “Design and Synthesis of Structurally Modified Analogs of 24Z-Isomasticadienonic Acid with Enhanced Anti-Proliferative Activity” (Molecules, 2025).

Like-named read-outs stand apart in the source and are kept apart here. Some results are limits rather than exact numbers.

Series [1] concerns panel of human cancer cell lines (Capan-1, HCT-116, LN-229, NCI-H460, DND-41, HL-60, K-562, Z-138).
Protocol: (§1) Human cancer cell lines used in this study included Capan-1, HCT-116, NCI-H460, LN-229, HL-60, K-562, and Z-138, all obtained from the American Type Culture Collection (ATCC). The DND-41 cell line was sourced from the Deutsche Sammlung von Mikroorganismen und Zellkulturen (DSMZ). All cell lines were cultured in media obtained from Gibco Life Technologies, supplemented with 10% fetal bovine serum (HyClone, Logan, UT, USA). Adherent cell lines were seeded in 384-well tissue culture plates at the following densities: Capan-1 at 500 cells/well, and HCT-116, NCI-H460, and LN-229 at 1500 cells/well. After overnight incubation to allow cell attachment, cells were treated with a seven-point serial dilution of test compounds, ranging from 100 µM to 0.006 µM. Suspension cell lines were seeded as follows: HL-60, K-562, and Z-138 at 2500 cells/well, and DND-41 at 5500 cells/well, using the same compound concentration range. All treatments were performed in 384-well plates under identical conditions. Following 72 h of compound exposure, cell viability was assessed using the CellTiter 96® AQueous One Solution Cell Proliferation Assay (MTS, Promega, Leiden, The Netherlands), following the manufacturer’s protocol. The final assay mixture contained 333 µg/mL MTS and 25 µM phenazine methosulfate (PMS). Absorbance was measured at 490 nm using a SpectraMax Plus 384 microplate reader (Molecular Devices, San Jose, CA, USA). Optical density values were used to calculate the half-maximal inhibitory concentration (IC50) for each compound. All compounds were tested in a minimum of two independent biological replicates to ensure reproducibility.
For series [2], the system named is HL-60 (acute myeloid leukemia). The series can be described thus: Antitumoral assay (MTS, 72 h), HL-60. Conditions: Homo sapiens, HL-60, 72 h, read-out: Cytotoxicity IC50, HL-60.
Protocol: (§2) Human cancer cell lines used in this study included Capan-1, HCT-116, NCI-H460, LN-229, HL-60, K-562, and Z-138, all obtained from the American Type Culture Collection (ATCC). The DND-41 cell line was sourced from the Deutsche Sammlung von Mikroorganismen und Zellkulturen (DSMZ). All cell lines were cultured in media obtained from Gibco Life Technologies, supplemented with 10% fetal bovine serum (HyClone, Logan, UT, USA). […] After overnight incubation to allow cell attachment, cells were treated with a seven-point serial dilution of test compounds, ranging from 100 µM to 0.006 µM. Suspension cell lines were seeded as follows: HL-60, K-562, and Z-138 at 2500 cells/well, and DND-41 at 5500 cells/well, using the same compound concentration range. All treatments were performed in 384-well plates under identical conditions. Following 72 h of compound exposure, cell viability was assessed using the CellTiter 96® AQueous One Solution Cell Proliferation Assay (MTS, Promega, Leiden, The Netherlands), following the manufacturer’s protocol. The final assay mixture contained 333 µg/mL MTS and 25 µM phenazine methosulfate (PMS). Absorbance was measured at 490 nm using a SpectraMax Plus 384 microplate reader (Molecular Devices, San Jose, CA, USA). Optical density values were used to calculate the half-maximal inhibitory concentration (IC50) for each compound. All compounds were tested in a minimum of two independent biological replicates to ensure reproducibility.
Series [3] has as its system K-562 (chronic myeloid leukemia). Kind of series: Antitumoral assay (MTS, 72 h), K-562. Conditions: Homo sapiens, K562, 72 h, read-out: Cytotoxicity IC50, K562.
Protocol: as §2
The test system of series [4] is Z-138 (non-Hodgkin's lymphoma). The series can be described thus: Antitumoral assay (MTS, 72 h), Z-138. Particulars: Homo sapiens, Z-138, 72 h, read-out: Cytotoxicity IC50, Z138.
Protocol: as §2
The next series relates to LN-229 (glioblastoma). Kind of series: Antitumoral assay (MTS, 72 h), LN-229. Conditions: Homo sapiens, LN-229, 72 h, read-out: Cytotoxicity IC50, LN229.
Series [5] has as its system DND-41 (acute lymphoblastic leukemia). The series can be described thus: Antitumoral assay (MTS, 72 h), DND-41. Conditions: Homo sapiens, DND41, 72 h, read-out: Cytotoxicity IC50, DND-41.
Protocol: as §2
The subject of series [6] is Capan-1 (pancreatic adenocarcinoma). The series can be described thus: Antitumoral assay (MTS, 72 h), Capan-1. Particulars: Homo sapiens, CAPAN-1, 72 h, read-out: Cytotoxicity IC50, Capan-1.
Protocol: as §1
Series [7] deals with HCT-116 (colorectal carcinoma). Kind of series: Antitumoral assay (MTS, 72 h), HCT-116. Conditions: Homo sapiens, HCT-116, 72 h, read-out: Cytotoxicity IC50, HCT-116.
Protocol: as §1
The test system of series [8] is NCI-H460 (lung carcinoma). The series can be described thus: Antitumoral assay (MTS, 72 h), NCI-H460. Conditions: Homo sapiens, NCI-H460, 72 h, read-out: Cytotoxicity IC50, NCl-H460.
Protocol: as §1
Series [9] concerns panel of human cancer cell lines (Capan-1, HCT-116, LN-229, NCI-H460, DND-41, HL-60, K-562, Z-138). Kind of series: Antitumoral evaluation across the panel of solid and hematological cancer cell lines. Particulars: 8 cancer cell lines, 72 h, MTS.
Protocol: as §1
The subject of series [10] is peripheral blood mononuclear cells (PBMCs). Kind of series: Cell viability of PBMCs (MTS, 72 h). The format is cell-based, Human. Particulars: 72 h exposure, duplicate. The method, then:
A buffy coat preparation sourced from a healthy donor was acquired from the Blood Transfusion Center in Leuven, Belgium. Peripheral blood mononuclear cells (PBMCs) were separated using density gradient centrifugation over Lymphoprep (density: 1.077 g/mL) from Nycomed. These cells were then cultured in cell culture medium (RPMI, Gibco, Waltham, MA, USA) supplemented with 10% FBS. The PBMCs were seeded at a density of 28,000 cells per well in 384-well tissue culture plates containing the test compounds at concentrations ranging from 50 µM to 3.2 nM (for compounds 3–11 and IMNA) and from 10 µM to 0.6 nM (for etoposide). Following a 72 h incubation period, cell viability was assessed using the MTS cell viability assay. Each compound was evaluated in duplicate.

Protocol for LN-229 (glioblastoma): as §1

As to `C/C(=C/CC[C@H](C)[C@@H]1CC[C@]2(C)C3=C(CC[C@@]12C)[C@@]1(C)CC(Br)C(=O)C(C)(C)C1CC3)C(=O)O` (mixture of isomers) [Compound 4, 2-Bromo-3-oxotirucalla-8,24Z-dien-26-oic Acid], the “Cytotoxic / antiproliferative profile across the cancer cell line panel (in words)” value in [1] was “intermediate activity across multiple cell lines”. For the same compound, the IC50 in series [2] was 14.7 ± 3.3 µM; in series [3], more than 50 µM; in series [4] it was more than 50 µM; with LN-229 (glioblastoma), 28.5 ± 5.3 µM; in [5], 20.5 ± 3.9 µM; in [6], 9.4 ± 1.5 µM. In addition, the concentration for half-maximal inhibition (IC50) in series [7] was determined as 22 ± 0.8 µM; in [8] it was 25.1 ± 1.9 µM.
Regarding `C/C(=C/CC[C@H](C)[C@@H]1CC[C@]2(C)C3=C(CC[C@@]12C)[C@@]1(C)CC(SC#N)C(=O)C(C)(C)C1CC3)C(=O)O` (mixture of isomers) [Compound 6, 2-Thiocyanate-3-oxotirucalla-8,24Z-dien-26-oic Acid], the “Cytotoxic / antiproliferative profile across the cancer cell line panel (in words)” value in series [1] was “broader antiproliferative activity”. In addition, the IC50 stood at 15 ± 1.2 µM in series [2]; 35 ± 3.9 µM in series [3]; 17.9 ± 0.4 µM in series [4]; 23.3 ± 2.9 µM with LN-229 (glioblastoma); 18.5 ± 0.7 µM in [5]; 7.4 ± 1 µM in series [6]. For the same compound, the IC50 stood at 24.3 ± 1.4 µM in series [7] and 21.3 ± 2.3 µM in series [8].
In the case of `C/C(=C/CC[C@H](C)[C@@H]1CC[C@]2(C)C3=C(CC[C@@]12C)[C@@]1(C)Cc2cnoc2C(C)(C)[C@@H]1CC3)C(=O)O` [Compound 3, (S,Z)-2-Methyl-6-((1S,3aS,5aR,10aS,12aS)-3a,6,6,10a,12a-pentamethyl-2,3,3a,4,5,5a,6,10,10a,11,12,12a-dodecahydro-1H-cyclopenta[7,8]phenanthro[3,2-d]isoxazol-1-yl)hept-2-enoic Acid], in [1], the “Cytotoxic / antiproliferative profile across the cancer cell line panel (in words)” value is “selective cytotoxicity toward Capan-1”. Moreover, the IC50 in series [2] was more than 50 µM; in [3] it was more than 50 µM; in series [4], more than 50 µM; with LN-229 (glioblastoma), more than 50 µM; in [5] it was more than 50 µM; in series [6], 6.7 ± 0.4 µM. For the same compound, the IC50 in [7] and in series [8] was more than 50 µM each time.
As for `C/C(=C/CC[C@H](C)[C@@H]1CC[C@]2(C)C3=C(CC[C@@]12C)[C@@]1(C)Cc2sc(N)nc2C(C)(C)[C@@H]1CC3)C(=O)O` [Compound 5, (S,Z)-6-((1S,3aS,5aR,10aS,12aS)-8-Amino-3a,6,6,10a,12a-pentamethyl-2,3,3a,4,5,5a,6,10,10a,11,12,12a-dodecahydro-1H-cyclopenta[7,8]phenanthro[2,3-d]thiazol-1-yl)-2-methylhept-2-enoic Acid], the “Cytotoxic / antiproliferative profile across the cancer cell line panel (in words)” value in series [1] is reported as “intermediate activity across multiple cell lines”. Further, the IC50 was 19.5 ± 3.2 µM in series [2]; more than 50 µM in [3]; 25 ± 1.4 µM in series [4]; 27.9 ± 2.9 µM in the series on LN-229 (glioblastoma); 19 ± 2 µM in series [5]; 23.5 ± 2.4 µM in series [6]. For the same compound, the IC50 in series [7] was found to be 28.2 ± 1.9 µM; in [8], 24.5 ± 7.2 µM.
Consider `C/C(=C/CC[C@H](C)[C@@H]1CC[C@]2(C)C3=C(CC[C@@]12C)[C@@]1(C)Cc2sc(N4CCOCC4)nc2C(C)(C)[C@@H]1CC3)C(=O)O` [Compound 7, (S,Z)-2-Methyl-6-((1S,3aS,5aR,10aS,12aS)-3a,6,6,10a,12a-pentamethyl-8-morpholino-2,3,3a,4,5,5a,6,10,10a,11,12,12a-dodecahydro-1H-cyclopenta[7,8]phenanthro[2,3-d]thiazol-1-yl)hept-2-enoic Acid], for which the “Cytotoxic / antiproliferative profile across the cancer cell line panel (in words)” value in series [1] was “selective cytotoxicity toward Capan-1”. For the same compound, the IC50 is more than 50 µM in [2]; more than 50 µM in series [3]; more than 50 µM in series [4]; more than 50 µM with LN-229 (glioblastoma); more than 50 µM in [5]; 26 ± 0.4 µM in [6]. For the same compound, the concentration for half-maximal inhibition (IC50) in series [7] and in [8] was more than 50 µM throughout.
For the compound `C/C(=C/CC[C@H](C)[C@@H]1CC[C@]2(C)C3=C(CC[C@@]12C)[C@]1(C)C(CC3)C(C)(C)C(=O)O[C@@H]1O)C(=O)O` (stereo partly drawn) [Compound 9, 1α-hydroxy-3-oxa-nor-tirucalla-8,24Z-dien-26-oic acid], the IC50 in series [2] is more than 50 µM; in series [3], more than 50 µM; in [4], more than 50 µM; in the series on LN-229 (glioblastoma), more than 50 µM; in [5] it was more than 50 µM; in series [6], 39.4 ± 1.5 µM. Moreover, the IC50 in [7] and in series [8] was more than 50 µM each time. Further, the “Cytotoxic / antiproliferative profile across the cancer cell line panel (in words)” value in series [9] is listed as “selective cytotoxicity toward Capan-1”.
As to `C/C(=C/CC[C@H](C)[C@@H]1CC[C@]2(C)C3=C(CC[C@@]12C)[C@@]1(C)CC(=O)C(C)(C)C1CC3)C(=O)O` (some centres unmarked) [Compound 11, 3-One-1(2→3)-abeotirucalla-8,24Z-dien-26-oic Acid], the IC50 in [2] is 29.6 ± 8.9 µM; in series [3], more than 50 µM; in [4], more than 50 µM; in the series on LN-229 (glioblastoma), more than 50 µM; in series [5], 49.3 ± 0.8 µM; in series [6] it was 24.6 ± 2.1 µM. The IC50 in [7] and in series [8] was more than 50 µM in each case. Further, in series [9], the “Cytotoxic / antiproliferative profile across the cancer cell line panel (in words)” value was “more limited and restricted cytotoxic profile”.
In the case of `COc1cc([C@@H]2c3cc4c(cc3[C@@H](O[C@@H]3O[C@@H]5CO[C@@H](C)O[C@H]5[C@H](O)[C@H]3O)[C@H]3COC(=O)[C@H]23)OCO4)cc(OC)c1O` [Etoposide, reference compound], in [10] (10 µM), the “Toxicity to normal PBMCs” value is recorded as “did not display toxicity”. Moreover, the IC50 in [2] was found to be 0.3 ± 0.12 µM; in series [3], 4.47 ± 0.11 µM; in series [4] it was 0.08 ± 0.007 µM; in the series on LN-229 (glioblastoma), 4.8 ± 0.87 µM; in series [5], 0.08 ± 0.03 µM; in series [6], 0.24 ± 0.01 µM. In addition, the IC50 in [7] came to 1.09 ± 0.19 µM; in series [8], 2.36 ± 0.7 µM. Moreover, the “Cytotoxic / antiproliferative profile across the cancer cell line panel (in words)” value in series [9] was “potent antiproliferative activity against all cancer cell lines”.
Turning to `C/C(=C/CC[C@H](C)[C@@H]1CC[C@]2(C)C3=C(CC[C@@]12C)[C@@]1(C)CCC(=O)C(C)(C)C1CC3)C(=O)O` (some centres unmarked) [IMNA, 24Z-isomasticadienonic acid], in series [10] (50 µM), the “Effect on viability of normal PBMCs” value was “none of the analogues (compounds 3–11 and IMNA) decreased the viability”. Further, the IC50 was 21.7 ± 3.1 µM in [2]; more than 50 µM in series [3]; 32.7 ± 3.2 µM in [4]; more than 50 µM with LN-229 (glioblastoma); 34.2 ± 2.5 µM in series [5]; 26.5 ± 1.6 µM in series [6]. In addition, the values for the IC50 in series [7] and in series [8] were 42.3 ± 2.3 µM and more than 50 µM, respectively. Further, the “Cytotoxic / antiproliferative profile across the cancer cell line panel (in words)” value in [9] is “intermediate activity across multiple cell lines”.
